From ChEMBL document CHEMBL4184195, “Influence of hydrocarbon-stapling on membrane interactions of synthetic antimicrobial peptides” (Bioorg Med Chem, 2018)
≈ marks a conversion by molar mass, not a printed value. Calls of active or inactive are those of the source. No cut-off for these calls is given here. Bridge positions count the residues as written; N and C are the ends. Square brackets hold non-standard residues; d marks the D form. Peptide text beside a SMILES is read from it. S5 = C=CCCC[C@](C)(N)C(=O)O

What was measured:
[1] = test system: Escherichia coli; assay: Growth inhibition of Escherichia coli BL21 at 2 uM after 2 hrs relative to 6K-F17; type: functional; conditions: for inhibition of growth at 2 µM: BL21, BL21, 2 h, read-out: GI
[2] = test system: Escherichia coli; assay: Time dependent inhibition of Escherichia coli BL21 at 2 uM; type: functional, organism-based
[3] = Binding affinity to SDS detergent micelles assessed as reduction in blue shift at 10 uM by tryptophan fluorescence-based fluorometry
[4] = test system: Escherichia coli; assay: Antibacterial activity against Escherichia coli BL21 after 20 hrs by two fold serial dilution method; type: functional; conditions: BL21, 20 h
[5] = Therapeutic index, ratio of MHC for human RBC to MIC for Escherichia coli BL21; type: toxicity; conditions: read-out: TI
[6] = Hemolytic activity in human RBC at 4 uM after 1 hr; type: ADME, cell-based, Erythrocyte; conditions: red blood cells (erythrocytes), read-out: Activity
[7] = test system: Erythrocyte; assay: Hemolytic activity in human RBC after 1 hr; type: ADME, cell-based
[8] = test system: Lipid bilayer; assay: Binding affinity to Escherichia coli large unilamellar vesicles assessed as reduction in blue shift at 10 uM by tryptophan fluorescence-based fluorometry
[9] = test system: Lipid bilayer; assay: Binding affinity to POPC liposome membranes assessed as reduction in blue shift at 10 uM by tryptophan fluorescence-based fluorometry
[10] = test system: Escherichia coli; assay: Time dependent inhibition of Escherichia coli BL21 at 4 uM; type: functional, organism-based
[11] = test system: Escherichia coli; assay: Time dependent inhibition of Escherichia coli BL21 at 8 uM; type: functional, organism-based
[12] = test system: Lipid bilayer; assay: Binding affinity to Escherichia coli large unilamellar vesicles assessed as change in spectral line shape by 31P solid-state NMR spectroscopic analysis
[13] = test system: Lipid bilayer; assay: Binding affinity to POPC liposome membranes assessed as change in spectral lineshape by 31P solid-state NMR spectroscopic analysis

Row | Compound | inhibition of growth at 2 µM [1] [%] | inhibition [2] | Activity [3] | MIC [4] [µM] | selectivity ratio [5] | hemolysis at 1 h, 4 µM [6] [%] | MHC [7] [µM] | Activity [8] | Activity [9] | inhibition [10] | inhibition [11] | Activity [12] | Activity [13] | growth inhibition (GI) [1]
1 | C[C@H](NC(=O)[C@H](C)NC(=O)[C@H](Cc1ccccc1)NC(=O)[C@]1(C)CCC/C=C\CCC[C@](C)(NC(=O)[C@H](Cc2ccccc2)NC(=O)[C@H](C)NC(=O)[C@H](C)NC(=O)[C@H](CCCCN)NC(=O)[C@H](CCCCN)NC(=O)[C@H](CCCCN)NC(=O)[C@H](CCCCN)NC(=O)[C@H](CCCCN)NC(=O)[C@@H](N)CCCCN)C(=O)N[C@@H](C)C(=O)N[C@@H](Cc2c[nH]c3ccccc23)C(=O)N[C@@H](C)C(=O)N1)C(N)=O (H-KKKKKKAAF[S5]AWA[S5]FAA-NH2; staple (Z) 10-14) | ≤ 40 | Active | Active | 1 (≈ 1.94 µg/mL) | 3.8 | 2 | 3.8 | inactive | inactive |  |  |  |  | 
2 | C[C@H](NC(=O)CNC(=O)[C@H](Cc1ccccc1)NC(=O)[C@]1(C)CCC/C=C\CCC[C@](C)(NC(=O)[C@H](Cc2ccccc2)NC(=O)CNC(=O)[C@H](C)NC(=O)[C@H](CCCCN)NC(=O)[C@H](CCCCN)NC(=O)[C@H](CCCCN)NC(=O)[C@H](CCCCN)NC(=O)[C@H](CCCCN)NC(=O)[C@@H](N)CCCCN)C(=O)N[C@@H](C)C(=O)N[C@@H](Cc2c[nH]c3ccccc23)C(=O)N[C@@H](C)C(=O)N1)C(N)=O (H-KKKKKKAGF[S5]AWA[S5]FGA-NH2; staple (Z) 10-14) | ≤ 40 |  | Active | 1.6 (≈ 3.06 µg/mL) | 9.4 |  | 15 | Active | inactive | Active |  |  |  | 
3 | C[C@H](NC(=O)CNC(=O)[C@H](Cc1ccccc1)NC(=O)[C@]1(C)CCC/C=C\CCC[C@](C)(NC(=O)[C@H](Cc2ccccc2)NC(=O)CNC(=O)[C@H](C)NC(=O)[C@H](CCCCN)NC(=O)[C@H](CCCCN)NC(=O)[C@H](CCCCN)NC(=O)[C@H](CCCCN)NC(=O)[C@H](CCCCN)NC(=O)[C@@H](N)CCCCN)C(=O)N[C@@H](C)C(=O)N[C@@H](Cc2c[nH]c3ccccc23)C(=O)NCC(=O)N1)C(N)=O (H-KKKKKKAGF[S5]AWG[S5]FGA-NH2; staple (Z) 10-14) | ≤ 40 |  | Active | 4.2 (≈ 7.99 µg/mL) | 30.8 |  | 128 | Active | inactive |  | Active |  |  | 
4 | C[C@H](NC(=O)CNC(=O)[C@H](Cc1ccccc1)NC(=O)[C@]1(C)CCC/C=C\CCC[C@](C)(NC(=O)[C@H](Cc2ccccc2)NC(=O)CNC(=O)[C@H](CC(N)=O)NC(=O)[C@H](CCCCN)NC(=O)[C@H](CCCCN)NC(=O)[C@H](CCCCN)NC(=O)[C@H](CCCCN)NC(=O)[C@H](CCCCN)NC(=O)[C@@H](N)CCCCN)C(=O)N[C@@H](C)C(=O)N[C@@H](Cc2c[nH]c3ccccc23)C(=O)NCC(=O)N1)C(N)=O (H-KKKKKKNGF[S5]AWG[S5]FGA-NH2; staple (Z) 10-14) | ≤ 40 |  | inactive | 4.2 (≈ 8.17 µg/mL) | 140 |  | 587 | Active | inactive |  | Active | Active | inactive | 
5 | H-KKKKKKAAFAAWAAFAA-NH2 |  |  | Active | 1.6 | 200 |  | 320 | Active | inactive | Active |  | Active | Active | Active
